Activity calls are given as the source filed them.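 How the source made its calls: active means parasite count per well reduced by over 3 SD from the mean, with host cell number above 80% of untreated; inactive means the rest.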
tested on: L. donovani amastigotes in THP-1 macrophages, DAPI imaging, 72 h; experiment: L. donovani intracellular amastigote growth inhibitors, imaging, THP-1 host macrophages, single concentration (AID 977614);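 further: signal is the parasite per host cell ratio from DAPI stained kinetoplasts and nuclei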

Row | SMILES | AC50
1 | C[C@@H]1CN([C@H](C)CO)C(=O)CCCn2cc(nn2)CO[C@@H]1CN(C)C(=O)Nc1cccc2ccccc12 | > 10 µM (inactive)
2 | CCC(=O)N1[C@H](CO)[C@@H]2c3ccccc3N(C(=O)Nc3ccc(Cl)cc3)C[C@@H]21 | > 10 µM (inactive)
3 | O=C(CC1CC1)N1[C@H](CO)[C@H]2c3ccccc3N(S(=O)(=O)c3ccccc3F)C[C@H]21 | > 10 µM (inactive)
4 | COc1ccc(CN(C)C[C@@H]2OCc3cnnn3CCCC(=O)N([C@@H](C)CO)C[C@H]2C)cc1 | > 10 µM (inactive)
5 | COc1ccccc1C(=O)N1C[C@H]2[C@@H](c3ccccc31)[C@H](CO)N2C(=O)Cc1ccccc1 | > 10 µM (inactive)
6 | CCN(C[C@H]1[C@@H](c2ccccc2)[C@@H](CO)N1C(=O)COC)S(C)(=O)=O | > 10 µM (inactive)
7 | C[C@H](CO)N1C[C@H](C)[C@@H](CN(C)C(=O)c2ccc(N3CCN(C)CC3)cc2)OCc2cn(nn2)CCCC1=O | > 10 µM (inactive)
8 | C/C=C/c1ccc([C@@H]2[C@@H](CNC(=O)C3CCC3)N(C(=O)NCCC)[C@H]2CO)cc1 | > 10 µM (inactive)
9 | CN(C[C@@H]1[C@H](c2ccccc2)[C@@H](CO)N1Cc1ccccn1)S(C)(=O)=O | > 10 µM (inactive)
10 | COc1ccc(CN2[C@H](CO)[C@H]3c4ccccc4N(C(=O)NC(C)C)C[C@H]32)cc1 | > 10 µM (inactive)
11 | O=S(=O)(c1ccc(F)cc1)N1C[C@@H]2[C@H](c3ccccc31)[C@H](CO)N2Cc1ccccc1Cl | > 10 µM (inactive)
12 | C/C=C/c1ccc([C@H]2[C@@H](CO)N[C@@H]2CN(Cc2cccnc2)C(=O)C2CC2)cc1 | > 10 µM (inactive)
13 | CN(C[C@H]1[C@@H](c2ccccc2)[C@@H](CO)N1C(=O)C1CCC1)C(=O)c1ccncc1 | > 10 µM (inactive)
14 | O=C(Nc1cccc(Cl)c1)N1C[C@H]2[C@@H](c3ccccc31)[C@@H](CO)N2Cc1cccnc1 | > 10 µM (inactive)
15 | O=C(CC(F)(F)F)N1C[C@H]2[C@@H](c3ccccc31)[C@H](CO)N2Cc1cccnc1 | > 10 µM (inactive)
16 | O=C(c1ccncc1)N1C[C@H]2[C@@H](c3ccccc31)[C@H](CO)N2C(=O)CN1CCOCC1 | > 10 µM (inactive)
17 | C[C@@H]1CN([C@H](C)CO)C(=O)CCCn2nncc2CO[C@@H]1CN(C)S(=O)(=O)c1ccc(Oc2ccccc2)nc1 | > 10 µM (inactive)
18 | CN1C[C@H]2[C@@H](c3ccccc31)[C@H](CO)N2C(=O)C1CCOCC1 | > 10 µM (inactive)
19 | Cc1noc(C)c1NC(=O)N(C)C[C@@H]1OCc2cnnn2CCCC(=O)N([C@@H](C)CO)C[C@@H]1C | > 10 µM (inactive)

Row | SMILES | AC50
20 | CN(C[C@@H]1N[C@H](CO)[C@H]1c1ccc(C2=CCCC2)cc1)C(=O)c1cccc(F)c1 | > 10 µM (inactive)
21 | C[C@@H]1CN([C@H](C)CO)C(=O)CCCn2nncc2CO[C@@H]1CN(C)C(=O)Nc1ccc(-c2cccs2)cc1 | > 10 µM (inactive)
22 | C[C@H]1CN([C@@H](C)CO)C(=O)CCCn2nncc2CO[C@@H]1CN(C)C(=O)c1cc(-c2ccccc2)on1 | > 10 µM (inactive)
23 | CCN(C[C@@H]1[C@@H](c2ccc(-c3cccnc3)cc2)[C@@H](CO)N1C(C)=O)C(C)=O | > 10 µM (inactive)
24 | CC(=O)N1[C@@H](CO)[C@@H](c2ccccc2)[C@@H]1CNC(=O)CN1CCOCC1 | > 10 µM (inactive)
25 | C[C@@H]1CN([C@@H](C)CO)C(=O)CCCn2cc(nn2)CO[C@H]1CN(C)C(=O)c1ccc(N2CCN(C)CC2)cc1 | > 10 µM (inactive)
26 | CCC(=O)N(CC(C)C)C[C@H]1[C@H](c2ccccc2)[C@@H](CO)N1C(=O)C1CCC1 | > 10 µM (inactive)
27 | COCCN(C[C@@H]1[C@@H](c2ccccc2)[C@@H](CO)N1C(C)=O)C(=O)c1cccnc1 | > 10 µM (inactive)
28 | O=C(Nc1ccc(F)cc1)N1[C@@H]2CNc3ccccc3[C@@H]2[C@@H]1CO | > 10 µM (inactive)
29 | COc1ccccc1S(=O)(=O)N(C)C[C@@H]1OCc2cn(nn2)CCCC(=O)N([C@@H](C)CO)C[C@@H]1C | > 10 µM (inactive)
30 | C[C@@H]1CN([C@H](C)CO)C(=O)CCCn2nncc2CO[C@@H]1CN(C)Cc1ccc(C(=O)Nc2ccccc2N)cc1 | > 10 µM (inactive)
31 | O=C(NC[C@@H]1[C@@H](c2ccccc2)[C@@H](CO)N1C(=O)C1CCC1)NC1CCCC1 | > 10 µM (inactive)
32 | CN(C[C@H]1N[C@@H](CO)[C@@H]1c1ccccc1)C(=O)c1ccccn1 | > 10 µM (inactive)
33 | CC(C)NC(=O)N1[C@H](CO)[C@@H](c2ccccc2)[C@@H]1CN(C)C(=O)c1cccnc1 | > 10 µM (inactive)
34 | O=S(=O)(c1ccccc1)N1[C@H](CO)[C@@H]2c3ccccc3NC[C@@H]21 | > 10 µM (inactive)
35 | O=C(CN1CCOCC1)N1[C@@H]2CNc3ccccc3[C@@H]2[C@@H]1CO | > 10 µM (inactive)
36 | COc1ccccc1-c1ccc([C@H]2[C@@H](CO)N[C@@H]2CNC(=O)C2CC2)cc1 | > 10 µM (inactive)
37 | C[C@H]1CN([C@@H](C)CO)C(=O)CCCn2nncc2CO[C@@H]1CN(C)C(=O)Nc1cccc(Oc2ccccn2)c1 | > 10 µM (inactive)
38 | O=C(c1ccccn1)N1C[C@@H]2[C@H](c3ccccc31)[C@@H](CO)N2C(=O)Nc1ccccc1Cl | > 10 µM (inactive)

— PubChem BioAssay AID977614 (Broad Institute, 2014)
